Measurements reported in ChEMBL document CHEMBL3612018, “Discovery of a Potent and Selective ROMK Inhibitor with Pharmacokinetic Properties Suitable for Preclinical Evaluation” (ACS Med Chem Lett, 2015).

Assays:
Rattus norvegicus [1] = organism: Rattus norvegicus; settings: in vivo, iv, 1 mg/kg
Rattus norvegicus [2] = organism: Rattus norvegicus; settings: in vivo, po, 2 mg/kg
in vivo [3] = settings: Sprague-Dawley, rat, po, 2 mg/kg
in vivo [4] = settings: Sprague-Dawley, rat
Rattus norvegicus [5] = organism: Rattus norvegicus; settings: in vivo, iv, 0.5 mg/kg
in vivo [6] = settings: Sprague-Dawley, rat; remark: listed apart in the source

SMILES | AUC/dose (Rattus norvegicus [2]) | bioavailability (in vivo [3]) | half-life (in vivo [4]) | clearance (Rattus norvegicus [5]) | half-life (in vivo [6]) | clearance (Rattus norvegicus [1])
O=C1OCc2cc(CCN3CCN(C(=O)Cc4ccc(-n5cnnn5)cc4)CC3)ccc21 | 0.34 µM·kg·h/mg | – | – | – | – | 40 mL/min/kg
COc1cc(CCN2CCN(CC(O)c3ccc4c(c3C)COC4=O)CC2)ccc1C#N (stereo not drawn) | 0.46 µM·kg·h/mg | 39% | 0.83 h | 33 mL/min/kg | – | –
Cc1nc(C(O)CN2CCN(C[C@H](O)c3ccc4c(c3C)COC4=O)CC2)ccc1C#N (stereo in doubt; 35) | 1.3 µM·kg·h/mg | 81% | – | – | 1.4 h | 25 mL/min/kg

Further lines, with some results ahead:

AUC/dose (Rattus norvegicus [2]) | bioavailability (in vivo [3]) | half-life (in vivo [4]) | clearance (Rattus norvegicus [5]) | half-life (in vivo [6]) | SMILES | clearance (Rattus norvegicus [1])
0.35 µM·kg·h/mg | 37% | 1.3 h | 40 mL/min/kg | – | COc1cc(C(O)CN2CCN(CCc3ccc4c(c3C)COC4=O)CC2)ccc1C#N (stereo not drawn) | –
0.74 µM·kg·h/mg | 78% | 1.5 h | 40 mL/min/kg | – | COc1cc(C(O)CN2CCN(CCc3ccc4c(c3C)COC4=O)CC2)ncc1C#N (stereo not drawn) | –
